Results as given in US7247727B2, “Azaindole thiazolinones” (Hoffmann-La Roche Inc., priority 2004, dated 2007).

Legend:
CDK1/Cyclin B = CDK1/Cyclin B (Homo sapiens, UniProt P06493); test: CDK1/Cyclin B kinase assay (FlashPlate or HTRF); assay type: biochemical; settings: recombinant human CDK1/Cyclin B, Rb protein substrate; Ki=IC50/(1+[S]/Km)
Experimental: To determine inhibition of CDK1 activity, either FlashPlate™ (NEN™-Life Science Products) assay or HTRF assay was performed. Both types of kinase assays were carried out using recombinant human CDK1/Cyclin B complex. GST-cyclinB (GST-cycB) and CDK1 cDNA clones in baculovirus vectors were provided by Dr. W. Harper at the Baylor College of Medicine, Houston, Tex. Proteins were co-expressed in High Five™ insect cells and the complex was purified on glutathione Sepharose resin (Pharmacia, Piscataway, N.J.) as previously described (Harper, J. W. et al. Cell 1993, 75, 805-816). A 6x-Histidine tagged truncated form of retinoblastoma (Rb) protein (amino acid 386-928) was used as the substrate for the CDK1/Cyclin B assay (the expression plasmid was provided by Dr. Veronica Sullivan, Department of Molecular Virology, Roche Research Centre, Welwyn Garden City, United Kingdom). The Rb protein is a natural substrate for phosphorylation by CDK1 (see Herwig and Strauss Eur. J. Biochem. Vol. 246 (1997) pp. 581-601 and the references cited therein). The expression of the 62Kd protein was under the control of an IPTG inducible promoter in an M15 E. coli strain. Cells were lysed by sonication and purification was carried out by binding lysates at pH 8.0 to a Ni-chelated agarose column pretreated with 1 mM imidazole. The resin was then washed several times with incrementally decreasing pH buffers to pH 6.0, and eluted with 500 mM imidazole. Eluted protein was dialyzed against 20 mM HEPES pH 7.5, 30% glycerol, 200 mM NaCl, and 1 mM DTT. Purified Rb fusion protein stocks were quantitated for protein concentration, aliquoted, and stored at −70° C.
For the FlashPlate kinase assay, 96-well FlashPlates were coated with Rb protein at 10 μg/ml, using 100 μl per well. Plates were incubated at 4° C. overnight or at room temperature for 3 hours on a shaker. […] Plates were washed four times with the wash buffer, sealed, and counted on the TopCount scintillation counter (Packard Instrument Co., Downers Grove, Ill.]. The percent inhibition of Rb phosphorylation, which is a measure of the inhibition of CDK activity, was determined according to the following formula:
[formula] where “test compound” refers to the average counts per minute of the test duplicates, “nonspecific” refers to the average counts per minute when no CDK1/Cyclin B, etc., was added, and “total” refers to the average counts per minute when no compound was added. […] The value of the inhibitor constant Ki is calculated by the following: Ki=IC50/(1+[S]/Km), where [S] is the ATP concentration and Km is Michaelis constant.
The Homogeneous Time Resolved Fluorescence (HTRF) kinase assay was carried out in 96-well polypropylene plates (BD Biosciences, Bedford, Mass.). […]

CDK2/Cyclin E = CDK2/Cyclin E (Homo sapiens, UniProt P24941); test: CDK2/Cyclin E kinase assay (procedure as for CDK1/Cyclin B); assay type: biochemical; settings: CDK2/Cyclin E complex, Rb protein substrate; Ki=IC50/(1+[S]/Km)
Experimental: For the FlashPlate kinase assay, 96-well FlashPlates were coated with Rb protein at 10 μg/ml, using 100 μl per well. Plates were incubated at 4° C. overnight or at room temperature for 3 hours on a shaker. To control for nonspecific phosphorylation, one row of wells was coated with 100 μl/well coating buffer (20 mM HEPES, 0.2 M NaCl). Plates were then washed twice with wash buffer (0.01% Tween 20 in phosphate-buffered saline). Compounds to be tested (“test compounds”) were added to the wells at 5× final concentration. Reactions were initiated by immediate addition of 40 μl reaction mix (25 mM HEPES, 20 mM MgCl2, 0.002% Tween 20, 2 mM DTT, 1 μM ATP, 4 nM 33P-ATP) and a sufficient amount of enzyme to give counts that were at least 10-fold above background. Plates were incubated at room temperature on a shaker for 30 minutes. Plates were washed four times with the wash buffer, sealed, and counted on the TopCount scintillation counter (Packard Instrument Co., Downers Grove, Ill.]. The percent inhibition of Rb phosphorylation, which is a measure of the inhibition of CDK activity, was determined according to the following formula:
[formula] where “test compound” refers to the average counts per minute of the test duplicates, “nonspecific” refers to the average counts per minute when no CDK1/Cyclin B, etc., was added, and “total” refers to the average counts per minute when no compound was added. The IC50 value is the concentration of test compound that reduces by 50% the protein-kinase induced incorporation of the radiolabel under the test conditions described. The value of the inhibitor constant Ki is calculated by the following: Ki=IC50/(1+[S]/Km), where [S] is the ATP concentration and Km is Michaelis constant.
The Homogeneous Time Resolved Fluorescence (HTRF) kinase assay was carried out in 96-well polypropylene plates (BD Biosciences, Bedford, Mass.). Test compounds were first dissolved in DMSO, and then diluted in kinase assay buffer 1 (25 mM HEPES, pH7.0, 8 mM MgCl2, 1.5 mM DTT, and 162 μM ATP) with DMSO concentration at 15%. The CDK1/Cyclin B enzyme was diluted in kinase assay buffer 2 (25 mM HEPES, pH 7.0, 8 mM MgCl2, 0.003% Tween 20, 0.045% BSA, 1.5 mM DTT, and 0.675 μM Rb protein). To initiate the kinase reaction, 20 μL of compound solution was mixed with 40 μL of CDK1/Cyclin B solution in assay plates with final concentration of CDK1/Cyclin B and Rb at 0.1 μg/mL and […], respectively, and incubated at 37° C. for 30 min. […] At the completion of the incubation, 35 μL of reaction mixture was transferred to fresh 384-well black polystyrene plates (Corning Incorporated, Corning, N.Y.) and read on a fluorescent plate reader at excitation wavelength of 340 nm and emission wavelength of 665/615 nm. […]

Sequence of CDK1/Cyclin B (P06493 whole entry, the tested form may be a part): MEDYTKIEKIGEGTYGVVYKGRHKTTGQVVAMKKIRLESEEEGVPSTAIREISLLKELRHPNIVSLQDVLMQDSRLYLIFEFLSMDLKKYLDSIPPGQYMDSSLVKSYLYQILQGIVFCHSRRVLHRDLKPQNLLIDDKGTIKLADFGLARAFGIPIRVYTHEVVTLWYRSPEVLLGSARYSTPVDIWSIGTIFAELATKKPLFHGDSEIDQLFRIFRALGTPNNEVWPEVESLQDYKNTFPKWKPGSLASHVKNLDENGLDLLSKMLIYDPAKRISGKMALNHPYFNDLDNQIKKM
Sequence of CDK1/Cyclin B (P14635 whole entry partner, the tested form may be a part): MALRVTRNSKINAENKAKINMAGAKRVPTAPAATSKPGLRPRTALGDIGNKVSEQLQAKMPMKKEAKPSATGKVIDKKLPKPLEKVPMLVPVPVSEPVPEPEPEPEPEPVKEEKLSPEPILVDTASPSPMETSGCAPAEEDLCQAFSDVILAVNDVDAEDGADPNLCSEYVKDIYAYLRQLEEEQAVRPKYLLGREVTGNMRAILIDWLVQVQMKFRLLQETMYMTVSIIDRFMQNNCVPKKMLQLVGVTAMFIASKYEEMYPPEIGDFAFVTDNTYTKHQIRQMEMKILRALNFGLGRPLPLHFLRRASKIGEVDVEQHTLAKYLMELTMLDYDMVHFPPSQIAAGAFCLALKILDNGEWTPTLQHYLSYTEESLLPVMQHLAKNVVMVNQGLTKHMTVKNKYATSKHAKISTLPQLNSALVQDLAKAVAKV

| SMILES | melting point [°C] | Ki (CDK1/Cyclin B) [nM] | Ki (CDK2/Cyclin E) [nM] |
| --- | --- | --- | --- |
| CC(C)[C@H](CO)NC1=NC(=O)/C(=C/c2c[nH]c3ncccc23)S1 [Example 6, 2-(1-(R)-Hydroxymethyl-2-methylpropylamino)-5-[1-(1H-pyrrolo[2,3-b]pyridin-3-yl)-meth-(Z)-ylidine]-thiazol-4-one] | 269 to 271 | – | – |
| O=C1N=C(NCc2ccc(F)c(Cl)c2)S/C1=C\c1c[nH]c2ncccc12 [Example 4, 2-(3-Chloro-4-fluorobenzylamino)-5-[1-(1H-pyrrolo[2,3-b]pyridin-3-yl)-meth-(Z)-ylidine]-thiazol-4-one] | 318 to 320 | – | – |
| O=C1N=C(NCc2cccs2)S/C1=C\c1c[nH]c2ncccc12 [Example 1, 5-[1-(1H-Pyrrolo[2,3-b]pyridin-3-yl)-meth-(Z)-ylidine]-2-[(thiophen-2-ylmethyl)-amino]-thiazol-4-one] | 243 to 246 | – | – |
| O=C1N=C(NC2C[C@@H]2c2ccccc2)S/C1=C\c1c[nH]c2ncccc12 (stereo partly drawn) [Example 5, 2-((1R,2S)-2-Phenyl-cyclopropylamino)-5-[1-(1H-pyrrolo[2,3-b]pyridin-3-yl)-meth-(Z)-ylidine]-thiazol-4-one] | 308 to 310 | 10 | 17 |
| O=C1N=C(N[C@@H](CO)c2ccccc2)S/C1=C\c1c[nH]c2ncccc12 [Example 3, 2-(2-Hydroxy-1-(R)-phenyl-ethylamino)-5-[1-(1H-pyrrolo[2,3-b]pyridin-3-yl)-meth-(Z)-ylidine]-thiazol-4-one] | 317 to 319 | – | – |

Next, values leading:

| melting point [°C] | Ki (CDK1/Cyclin B) [nM] | Ki (CDK2/Cyclin E) [nM] | SMILES |
| --- | --- | --- | --- |
| 243.7 to 246.8 | – | – | CC(=O)OC[C@H](NC1=NC(=O)/C(=C/c2c[nH]c3ncccc23)S1)c1ccccc1 [Example 7, Acetic Acid 2-[4-oxo-5-(1H-pyrrolo[2,3,b]pyridine-3-ylmethylene)-4,5-dihydro-thiazol-2-ylamino]-2-(R)-phenyl-ethyl ester] |
| – | 830 | 252 | NC1=NC(=O)/C(=C/c2c[nH]c3ncccc23)S1 [Example 15, 2-Amino-5-[1-(1H-pyrrolo[2,3-b]pyridin-3-yl)-meth-(Z)-ylidene]-thiazol-4-one] |
| – | 1150 | 187 | COc1ccccc1NC1=NC(=O)/C(=C/c2c[nH]c3ncccc23)S1 [Example 18, 2-(2-Methoxy-phenylamino)-5-[1-(1H-pyrrolo[2,3-b]pyridin-3-yl)-meth-(Z)-ylidene]-thiazol-4-one] |
| – | 48 | 18 | Cc1ccsc1CNC1=NC(=O)/C(=C/c2c[nH]c3ncccc23)S1 [Example 10, 2-[(3-Methyl-thiophen-2-ylmethyl)-amino)-5-[1-(1H-pyrrolo[2,3-b]pyridin-3-yl)-meth-(Z)-ylidine]-thiazol-4-one] |
